Among the data in patent US9994587B2, “HIV protease inhibitors” (priority 2014, dated 2018) are IC50 values, retold here.

For assay [1], the target named is T1, wildtype HIV-1 protease (Human immunodeficiency virus type 1 group M subtype B, UniProt P04585).
T1 construct: preincubated with the HIV-1 protease (wild type) enzyme in assay buffer; made in house; host or cells: Escherichia coli
Nature of the assay: Assay for inhibition of microbial expressed HIV protease (Pepcleav). The class given is biochemical. Conditions: wild type HIV-1 protease 20 pM, peptide substrate 400 micromolar, pH 5.5; mean of at least two independent experiments. The essentials:
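E. coli-expressed enzyme preincubated with inhibitor 30 min at room temperature in 50 mM sodium acetate pH 5.5, 100 mM NaCl, 0.1% BSA, then 400 micromolar peptide substrate added with 20 picomolar protease (final), 1 h at 30° C. Product quantified by LC-MS/MS peak area after formic acid/indinavir quench.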

Assay [2] has as its system HIV-1 (NL4-3 strain). Kind of assay: Viral Kinetics GFP Reporter (ViKinG) assay. The class given is cell-based. Conditions: Human immunodeficiency virus 1, NL43; 50% NHS; MT4-GFP cells infected with HIV-1 NL4-3; mean of at least two independent experiments. From the text: Viral Kinetics GFP Reporter (ViKinG) Assay
The ViKinG assay is an in vitro kinetic assay that employs the MT4-gag-GFP reporter cell line (Wang et al., “Assessment of the susceptibility of mutant HIV-1 to antiviral agents.” J Virological Methods 165:230-37 (2010)) to quantify the number of new cells infected in each round of replication. The purpose of the ViKinG assay is to identify agents that inhibit HIV progression. Briefly, HIV infection results in tat transactivation of the stably expressed HIV LTR promoter to drive gagGFP expression. Thus, an increase in the number of GFP-MT4 cells results following HIV infection.
MT4-GFP cells (250,000 cells/ml) were bulk-infected with HIV-1 (NL4-3 strain) at low multiplicity of infection (MOI) in RPMI+10% FBS for 24 hours. Cells were then washed once in RPMI+10% FBS and resuspended RPMI+10% or 50% normal human serum (NHS). Test compounds were serial-diluted in DMSO on an ECHO® liquid handling platform (Labcyte Corp., Sunnyvale, Calif.), along with a triple drug control (integrase, protease and NNRTI compounds). The infected MT4-GFP cells were added to a 384-well poly-D-lysine coated black plate with clear bottom in which the diluted test compounds were placed. The cells were seeded at 8,000 cells per well and the final DMSO concentration was 0.4%. The infected cells (Green GFP cells) were quantified at both 24 and 48 hours post incubation using Acumen® eX3 (TTP Labtech Ltd., Hertfordshire, United Kingdom). Viral reproductive ratio (R0) was determined using the number of infected cells at 48 hours divided by the number of infected cells at 24 hours. Percent viral growth inhibition was calculated by [1−(R−Rtripledrug)/(RDMSO−Rtripledrug)]*100. Compound potency IP or IC50 was determined by a 4-parameter dose response curve analysis.

pIC50: −log10 of the molar value.

In general, pIC50 refers to the IC50 on a negative log10 scale, so that one unit is a factor of ten. Read a high pIC50 as a low IC50. With `COC(=O)N[C@H](C(=O)Nc1cncc(F)c1CC[C@@H]1CNCC2(CCOCC2)O1)[C@@H](c1ccc(Cl)cc1)c1cc(F)cc(F)c1` [Example 98, methyl {(1S,2S)-2-(4-chlorophenyl)-2-(3,5-difluorophenyl)-1-[(4-{2-[(2R)-1,9-dioxa-4-azaspiro[5.5]undec-2-yl]ethyl}-5-fluoropyridin-3-yl)carbamoyl]ethyl}carbamate], the pIC50 was 7.54 in assay [1] and 7.06 in assay [2].

For `N[C@H](C(=O)Nc1cncc(F)c1CC[C@@H]1CNC[C@@H](CSc2nnc(-c3ccncc3)o2)O1)C(c1ccc(F)cc1)c1ccc(F)cc1` [Example 103, (S)-2-amino-N-(5-fluoro-4-(2-((2R,6S)-6-(((5-(pyridin-4-yl)-1,3,4-oxadiazol-2-yl)thio)methyl)morpholin-2-yl)ethyl)pyridin-3-yl)-3,3-bis(4-fluorophenyl)propanamide], the pIC50 was 9.31 in assay [1] and 7.43 in assay [2].

In the case of `N[C@H](C(=O)Nc1cccc(F)c1CC[C@@H]1CNC[C@@H](CSc2nnc(-c3ccncc3)o2)O1)C(c1ccc(F)cc1)c1ccc(F)cc1` [Example 91, 4-fluoro-β-(4-fluorophenyl)-N-(3-fluoro-2-{2-[(2R,6S)-6-{[(5-pyridin-4-yl-1,3,4-oxadiazol-2-yl)sulfanyl]methyl}morpholin-2-yl]ethyl}phenyl)-L-phenylalaninamide], the pIC50 was 9.60 in assay [1] and 7.70 in assay [2].

Turning to `COC(=O)N[C@H](C(=O)Nc1cccc(F)c1CC[C@@H]1CNCC2(CCN(S(C)(=O)=O)CC2)O1)[C@@H](c1ccc(Cl)cc1)c1cc(F)cc(F)c1` [Example 94, methyl {(1 S,2S)-2-(4-chlorophenyl)-2-(3,5-difluorophenyl)-1-[(3-fluoro-2-{2-[(2R)-9-(methylsulfonyl)-1-oxa-4,9-diazaspiro[5.5]undec-2-yl]ethyl}phenyl)carbamoyl]ethyl}carbamate], the values for the pIC50 in assay [1] and in assay [2] were 7.96 and 7.38, respectively.

Regarding `N[C@H](C(=O)Nc1cccc(F)c1CC[C@@H]1CNC[C@@H](COC(=O)NCC(F)(F)F)O1)C(c1ccc(F)cc1)c1ccc(F)cc1` [Example 99, 4-fluoro-β-(4-fluorophenyl)-N-(3-fluoro-2-{2-[(2R,6S)-6-({[(2,2,2-trifluoroethyl)carbamoyl]oxy}methyl)morpholin-2-yl]ethyl}phenyl)-L-phenylalaninamide], the pIC50 is 7.82 in assay [1] and 7.23 in assay [2].

With `CS(=O)(=O)N1CCC2(CC1)CNC[C@@H](CCc1c(F)cccc1NC(=O)[C@@H](N)[C@@H](c1ccc(Cl)cc1)c1cc(F)cc(F)c1)O2` [Example 93, (βS)-4-chloro-β-(3,5-difluorophenyl)-N-(3-fluoro-2-{2-[(2R)-9-(methylsulfonyl)-1-oxa-4,9-diazaspiro[5.5]undec-2-yl]ethyl}phenyl)-L-phenylalaninamide], the negative logarithm of the IC50 (pIC50) is 7.96 in assay [1] and 7.34 in assay [2].
